Measured values reported in ChEMBL document CHEMBL3826930, “Antitumor activities of biscoumarin and dihydropyran derivatives” (Bioorg Med Chem Lett, 2016).
Values after ≈ are worked out from the molar mass of the structure shown. One block for each compound: values may come before it.

Columns and labels:
[1] = Antiproliferative activity against human HuTu 80 cells after 48 hrs by MTT assay; format: functional, cell-based; details: HuTu80, 48 h
[2] = tested on: 4T1; assay: Antiproliferative activity against mouse 4T1 cells after 48 hrs by MTT assay; format: functional, cell-based; details: 4T1, 48 h
[3] = Antiproliferative activity against human PANC1 cells after 48 hrs by MTT assay; format: functional, cell-based; details: PANC-1, 48 h
[4] = tested on: Mus musculus; assay: Acute toxicity in Kunming mouse assessed as sleep pattern abnormality at 500 mg/kg, administered as single dose after 14 days; format: organism-based; details: in vivo, 336 h
[5] = tested on: Mus musculus; assay: Acute toxicity in Kunming mouse assessed as structural abnormality in liver at 500 mg/kg, administered as single dose after 14 days by hematoxylin and eosin staining based histological analysis; format: organism-based; details: in vivo, 336 h
[6] = tested on: Mus musculus; assay: Acute toxicity in Kunming mouse assessed as structural abnormality in kidney at 500 mg/kg, administered as single dose after 14 days by hematoxylin and eosin staining based histological analysis; format: organism-based; details: in vivo, 336 h
[7] = (§1) Cytotoxicity against HUVEC assessed as reduction in cell survival after 48 hrs by MTT assay; format: cell-based, Homo sapiens; details: human, HUVEC cells
[8] = tested on: HUVEC; assay: as §1; format: cell-based, Homo sapiens; details: Homo sapiens, HUVEC, 48 h
[9] = (§2) Cytotoxicity against HEK293 cells assessed as reduction in cell survival after 48 hrs by MTT assay; format: cell-based, Homo sapiens; details: human, HEK293 cells
[10] = tested on: HEK293; assay: as §2; format: cell-based, Homo sapiens; details: Homo sapiens, HEK293, 48 h
[11] = tested on: HuTu80; assay: Selectivity index, ratio of IC50 for HUVEC to IC50 for human HuTu 80 cells
[12] = tested on: 4T1; assay: Selectivity index, ratio of IC50 for HUVEC to IC50 for mouse 4T1 cells
[13] = tested on: PANC-1; assay: Selectivity index, ratio of IC50 for HUVEC to IC50 for human PANC1 cells
[14] = tested on: HEK293; assay: Selectivity index, ratio of IC50 for HEK293 cells to IC50 for human HuTu 80 cells; format: functional
[15] = tested on: HEK293; assay: Selectivity index, ratio of IC50 for HEK293 cells to IC50 for mouse 4T1 cells; format: functional
[16] = tested on: HEK293; assay: Selectivity index, ratio of IC50 for HEK293 cells to IC50 for human PANC1 cells; format: functional
[17] = tested on: Mus musculus; assay: Acute toxicity in Kunming mouse assessed as survival at 500 mg/kg, administered as single dose measured on day 14 post dose; format: organism-based; details: in vivo
[18] = tested on: Mus musculus; assay: Acute toxicity in Kunming mouse assessed as physical/abnormal changes in skin at 500 mg/kg, administered as single dose after 14 days; format: organism-based; details: in vivo, 336 h
[19] = tested on: Mus musculus; assay: Acute toxicity in Kunming mouse assessed as physical/abnormal changes in fur at 500 mg/kg, administered as single dose after 14 days; format: organism-based; details: in vivo, 336 h
[20] = tested on: Mus musculus; assay: Acute toxicity in Kunming mouse assessed as physical/abnormal changes in eyes at 500 mg/kg, administered as single dose after 14 days; format: organism-based; details: in vivo, 336 h
[21] = tested on: Mus musculus; assay: Acute toxicity in Kunming mouse assessed as physical/abnormal changes in mucus membrane at 500 mg/kg, administered as single dose after 14 days; format: organism-based; details: in vivo, 336 h
[22] = tested on: Mus musculus; assay: Acute toxicity in Kunming mouse assessed as tremor induction at 500 mg/kg, administered as single dose after 14 days; format: organism-based; details: in vivo, 336 h
[23] = tested on: Mus musculus; assay: Acute toxicity in Kunming mouse assessed as induction of salivation at 500 mg/kg, administered as single dose after 14 days; format: organism-based; details: in vivo, 336 h
[24] = tested on: Mus musculus; assay: Acute toxicity in Kunming mouse assessed as behavior pattern abnormality at 500 mg/kg, administered as single dose after 14 days; format: organism-based; details: in vivo, 336 h

Compound: N#CC1=C(N)Oc2c(c(=O)oc3ccccc23)C1c1ccc(Br)cc1 (centres undefined)
- IC50 [1]: > 300 µg/mL
- IC90 [1]: 447 µg/mL (≈ 1130 µM)
- IC50 [2]: > 300 µg/mL
- IC90 [2]: > 500 µg/mL
- IC50 [3]: > 300 µg/mL
- IC90 [3]: > 500 µg/mL

Compound: COc1ccc(C(c2c(O)c3ccccc3oc2=O)c2c(O)c3ccccc3oc2=O)cc1
- Activity [4]: Non-toxic
- Activity [5]: Non-toxic
- Activity [6]: Non-toxic
- IC50 [1]: 53.8 µg/mL (≈ 122 µM)
- IC90 [1]: 103 µg/mL (≈ 233 µM)
- IC50 [2]: 85.7 µg/mL (≈ 194 µM)
- IC90 [2]: 167 µg/mL (≈ 377 µM)
- IC50 [3]: 42.5 µg/mL (≈ 96.1 µM)
- IC90 [3]: 82.5 µg/mL (≈ 186 µM)
- IC90 at 48 h [7]: 363 µg/mL (≈ 821 µM)
- IC50 [8]: 199 µg/mL (≈ 450 µM)
- IC90 at 48 h [9]: 322 µg/mL (≈ 727 µM)
- IC50 [10]: 165 µg/mL (≈ 373 µM)
- Ratio IC50 [11]: 3.7
- Ratio IC50 [12]: 2.3
- Ratio IC50 [13]: 4.7
- Ratio IC50 [14]: 3.1
- Ratio IC50 [15]: 1.9
- Ratio IC50 [16]: 3.9
- Activity [17]: Non-toxic
- Activity [18]: Non-toxic
- Activity [19]: Non-toxic
- Activity [20]: Non-toxic
- Activity [21]: Non-toxic
- Activity [22]: Non-toxic
- Activity [23]: Non-toxic
- Activity [24]: Non-toxic

Compound: N#CC1=C(N)Oc2c(c(=O)oc3ccccc23)C1c1ccc(C#N)cc1 (centres undefined)
- IC50 [1]: > 300 µg/mL
- IC90 [1]: > 500 µg/mL
- IC50 [2]: > 300 µg/mL
- IC90 [2]: > 500 µg/mL
- IC50 [3]: > 300 µg/mL
- IC90 [3]: > 500 µg/mL

Compound: CC(C)(C)c1ccc(C2C(C#N)=C(N)OC3=C2C(=O)CC3)cc1 (centres undefined)
- IC50 [1]: 103 µg/mL (≈ 334 µM)
- IC90 [1]: 233 µg/mL (≈ 757 µM)
- IC50 [2]: 117 µg/mL (≈ 378 µM)
- IC90 [2]: 288 µg/mL (≈ 936 µM)
- IC50 [3]: 219 µg/mL (≈ 711 µM)
- IC90 [3]: 435 µg/mL (≈ 1410 µM)

Compound: COc1cc(C2C(C#N)=C(N)OC3=C2C(=O)CC3)cc(OC)c1OC (centres undefined)
- IC50 [1]: 185 µg/mL (≈ 541 µM)
- IC90 [1]: 360 µg/mL (≈ 1050 µM)
- IC50 [2]: 153 µg/mL (≈ 448 µM)
- IC90 [2]: 365 µg/mL (≈ 1070 µM)
- IC50 [3]: 200 µg/mL (≈ 583 µM)
- IC90 [3]: 391 µg/mL (≈ 1140 µM)

The next lines start with results.

- IC50 [2]: > 300 µg/mL
- IC90 [2]: > 500 µg/mL
Compound: CC1(C)CC(=O)C2=C(C1)OC(N)=C(C#N)C2c1ccc(S(C)(=O)=O)cc1 (centres undefined)
- IC50 [1]: > 300 µg/mL
- IC90 [1]: > 500 µg/mL
- IC50 [3]: > 300 µg/mL
- IC90 [3]: > 500 µg/mL

- IC50 [2]: 241 µg/mL (≈ 692 µM)
- IC90 [2]: > 500 µg/mL
Compound: CC1(C)CC(=O)C2=C(C1)OC(N)=C(C#N)C2c1cc(F)c(F)c(F)c1 (centres undefined)
- IC50 [1]: 297 µg/mL (≈ 854 µM)
- IC90 [1]: > 500 µg/mL
- IC50 [3]: 283 µg/mL (≈ 812 µM)
- IC90 [3]: > 500 µg/mL

- IC50 [2]: 248 µg/mL (≈ 764 µM)
- IC90 [2]: > 500 µg/mL
Compound: COc1cccc(C2C(C#N)=C(N)OC3=C2C(=O)CC(C)(C)C3)c1 (centres undefined)
- IC50 [1]: 283 µg/mL (≈ 873 µM)
- IC90 [1]: > 500 µg/mL
- IC50 [3]: > 300 µg/mL
- IC90 [3]: > 500 µg/mL
